Source: US5969174A, “Competitive inhibitors of glyoxalase I and method of generating such competitive inhibitors inside tumor cells” (priority 1998, dated 1999)

Legend:
[1] = test system: L1210 cells; assay: Cell permeability / intracellular appearance of enediol analog in L1210 cells; format: in vitro ADME, murine; settings: L1210 cells
Protocol: In order to understand the mechanism of intracellular delivery of the enediol analogs, suspensions of L1210 cells were separately incubated with the diacid 2 and with the corresponding diethyl ester 2(Et)2. The rate of appearance of these species in the intracellular fraction was then monitored as a function of time by reverse-phase HPLC (FIG. 4). […] After 90 minutes, the concentration of 2 decreased, possibly due to a combination of factors including (a) 10-20% cell death over the course of the experiment, (b) hydrolytic deethylation of extracellular 2(Et)2, and (c) GlxII-catalyzed decarbamoylation of intracellular 2.
To suspensions of L1210 cells (~1.5(10^6 cells/ml) in RPMI 1640 medium, containing 10% heat-inactivated fetal calf serum, gentamycin (10 μg/ml) and L-glutamate, at 37° C., were added fixed concentrations of 2a. Aliquots (1 ml) were removed from the cell suspension as a function of time, overlaid onto 0.4 ml of silicone oil (SF-1250 silicone fluids, General Electric Co., Silicone Products Division, Waterford, N.Y.) contained in an eppendorf centrifuge tube and centrifuged at 11,000×g (15 min) at 25° C. The supernatant and silicone oil were decanted from the cell pellet and residual oil removed from the inside of the centrifuge tube with a cotton swab. To the pellet was added 1 ml 70% ethanol in water and the suspension sonicated for 5 minutes. The denatured protein was sedimented by centrifugation (11,000×g, 15 min) and the clear supernatant was removed. The supernatant was brought to dryness under a stream of argon, and the resulting residue was fractionated by reverse-phase HPLC (Waters μBondapak C18, 0.78(30 cm), using a mobile phase composed of methanol:water (1:1) containing 0.25% acetic acid at a flow rate of 2 ml/min. The integrated intensity of the peak corresponding S-(N-p-chlorophenyl-N-hydroxycarbamoyl) glutathione was determined at λ=260 nm. Concentrations were extrapolated from standard curves that were linear in the range 0.1 to 4.0 nmoles (r=0.997).

[2] = target: human erythrocyte GlxI; settings: FIG. 8; read-out: Ki, tight-binding competitive inhibitor of human glyoxalase I; cited from earlier work
[3] = n-octanol/water partition coefficient
[4] = Acyl-interchange reaction with glutathione in a cell-free system; format: physicochemical
Protocol: In principle, an acyl-interchange reaction might serve as the basis of an improved prodrug strategy, provided that the acylating reagent diffuses rapidly across cell membranes and then reacts rapidly with intracellular glutathione to give the enediol analog. Three N-hydroxycarbamate thioethyl esters (2(a-c)) and the corresponding sulfoxides (3(a-c)) were prepared (FIG. 7) and their rates of acyl-interchange with glutathione in a cell free system evaluated (Table II). Sulfoxidation of N,N-di-n-propylcarbamate thioalkyl esters activates these species for acyl-interchange with glutathione. […] The N--OH function appears to inductively activate the sulfoxides for acyl-interchange, as the rate constant for 3a exceeds that of the corresponding N--CH3 derivative 3c by 13-fold. The products of the interchange reactions were confirmed as the corresponding enediol analogs, on the basis that their UV spectra and their migratory properties on a reverse-phase C18 column were identical with those of authentic samples of enediol analog.
Second order rate constants for the
acyl-interchange reactions between glutathione and the list thioesters
CH3 CH2 XC(O)N(Y)Z + GSG ---(k2)--> GSC(O)B(Y)Z +
Conditions: Potassium phosphate buffer (50 mM), pH 7.5, 5% ethanol, […]

[5] = test system: HL60 cells; settings: cited from earlier work

N[C@@H](CCC(=O)N[C@@H](CSC(=O)N(O)c1ccc(Cl)cc1)C(=O)NCC(=O)O)C(=O)O [Compound 2, S-(N-p-chlorophenyl N-hydroxycarbamoyl)glutathione]
intracellular uptake in words [1]: no significant time-dependent increase in intracellular [2]
Ki [2]: 46 nM
logP [3]: < -2

CC[S+]([O-])C(=O)N(C)O (stereo not shown) [Compound 3b]
rate constant relative to thioester 2a [4]: exceed by several-fold that with the thioester 2 a
k2, second order rate constant for acyl-interchange with glutathione ([4]; 50 mM potassium phosphate, pH 7.5, 5% ethanol, 25° C.): 9.83 ± 0.33 M⁻¹ s⁻¹

C[C@@H](O)C(=O)SC[C@H](NC(=O)CC[C@H](N)C(=O)O)C(=O)NCC(=O)O [S-D-lactoylglutathione]
growth of HL60 cells ([5]; literature (25)): inhibits the growth of HL60 cells in culture

N[C@@H](CCC(=O)N[C@@H](CSCc1ccc(Br)cc1)C(=O)NCC(=O)O)C(=O)O [S-p-bromobenzylglutathione]
effect on human leukemia HL60 cells ([5]; literature): both cytostatic and cytotoxic to these cells
